The values that follow come from US8349867B2, “Quinoline compounds, intermediates, preparation methods and uses thereof” (Shanghai Institute of Pharmaceutical Industry, priority 2006, dated 2013).

Compound `COc1cccc(Sc2cc3ncc(/C=C/[C@@H]4C[C@@H](O)CC(=O)O4)c(Sc4cccc(OC)c4)c3cc2Sc2cccc(OC)c2)c1` [Compound A31] came in with a melting point of 57 to 59 °C. With `CC(C)c1ccc(Sc2c(/C=C/[C@@H]3C[C@@H](O)CC(=O)O3)cnc3cc(Cl)c(F)cc23)cc1` [Compound A12], the melting point fell in the range of 175 to 177 °C. Under `O=C1C[C@H](O)C[C@@H](/C=C/c2cnc3ccccc3c2Sc2ccc(F)cc2)O1` [Compound A2] stands 130 to 132 °C. Under `CC(C)c1ccc(Sc2c(/C=C/[C@@H]3C[C@@H](O)CC(=O)O3)cnc3ccccc23)cc1` [Compound A4] stands 147 to 148 °C; under `CC(C)c1ccc(Sc2cc3ncc(/C=C/[C@@H]4C[C@@H](O)CC(=O)O4)c(Sc4ccc(C(C)C)cc4)c3cc2Sc2ccc(C(C)C)cc2)cc1` [Compound A32], 182 to 184 °C.
